Results on 2 molecules are retold here after US6632806B1, “Neurologically-active compounds” (The University of Sydney, priority 1997, dated 2003).

The target in assay [1] is human r1 receptors (GABAC receptors) (Homo sapiens, UniProt P24046). The assay can be described thus: Two-electrode voltage clamp recording of human r1 GABAC receptors expressed in Xenopus oocytes. For orientation: Two-electrode voltage clamp is typically applied to oocytes expressing channels or transporters.
Procedure: The plasmid was linearized with XbaI and cRNA made using the “Message Machine” kit from Ambion Inc. (Austin, Tex., USA). 50 ng of cRNA was injected into defolliculated Stage V Xenopus oocytes. Two to seven days later, receptor activity was measured by two-electrode voltage clamp recording, using a Geneclamp 500 amplifier (Axon Instruments Inc., Foster City, Calif., USA) and a MacLab 2e recorder (ADInstruments, Sydney, NSW, Australia). […] For receptor activation measurements, the indicated concentrations of agonist and antagonist were added to ND96.
A further assay deals with chicks. The assay can be described thus: Memory consolidation in chicks, anthranilate-coated bead discrimination. The assay is classed as in vivo, chick. Here is the method:
This procedure trains each chick on anthranilate-coated red beads, which have a bitter taste. In the test, 120 min. after the initial exposure to the red bead each chick is presented with a blue and a red bead, and normally will avoid pecking at the red bead; the discrimination ratio measures how well it remembers to do this. Chicks trained on 100% anthranilate-coated beads produce a discrimination ratio better than 0.9, and drug-induced memory deficits can be detected in this group. However, chicks trained on 20% anthranilate-coated beads produce a discrimination ratio of around 0.6, and this group can be used to detect drug-induced memory enhancement. Drugs are delivered by two bilateral intracranial injections (10 μL each).

Assay [2] deals with T1, GABAB (Rattus norvegicus, UniProt Q9Z0U4). The arrangement: from tissue; host or cells: hippocampal slices (pyramidal neurons). Particulars: bicuculline 20 μM; Ragozzino et al (1996); cited from earlier work.
Target sequence in this assay (Q9Z0U4 20-960): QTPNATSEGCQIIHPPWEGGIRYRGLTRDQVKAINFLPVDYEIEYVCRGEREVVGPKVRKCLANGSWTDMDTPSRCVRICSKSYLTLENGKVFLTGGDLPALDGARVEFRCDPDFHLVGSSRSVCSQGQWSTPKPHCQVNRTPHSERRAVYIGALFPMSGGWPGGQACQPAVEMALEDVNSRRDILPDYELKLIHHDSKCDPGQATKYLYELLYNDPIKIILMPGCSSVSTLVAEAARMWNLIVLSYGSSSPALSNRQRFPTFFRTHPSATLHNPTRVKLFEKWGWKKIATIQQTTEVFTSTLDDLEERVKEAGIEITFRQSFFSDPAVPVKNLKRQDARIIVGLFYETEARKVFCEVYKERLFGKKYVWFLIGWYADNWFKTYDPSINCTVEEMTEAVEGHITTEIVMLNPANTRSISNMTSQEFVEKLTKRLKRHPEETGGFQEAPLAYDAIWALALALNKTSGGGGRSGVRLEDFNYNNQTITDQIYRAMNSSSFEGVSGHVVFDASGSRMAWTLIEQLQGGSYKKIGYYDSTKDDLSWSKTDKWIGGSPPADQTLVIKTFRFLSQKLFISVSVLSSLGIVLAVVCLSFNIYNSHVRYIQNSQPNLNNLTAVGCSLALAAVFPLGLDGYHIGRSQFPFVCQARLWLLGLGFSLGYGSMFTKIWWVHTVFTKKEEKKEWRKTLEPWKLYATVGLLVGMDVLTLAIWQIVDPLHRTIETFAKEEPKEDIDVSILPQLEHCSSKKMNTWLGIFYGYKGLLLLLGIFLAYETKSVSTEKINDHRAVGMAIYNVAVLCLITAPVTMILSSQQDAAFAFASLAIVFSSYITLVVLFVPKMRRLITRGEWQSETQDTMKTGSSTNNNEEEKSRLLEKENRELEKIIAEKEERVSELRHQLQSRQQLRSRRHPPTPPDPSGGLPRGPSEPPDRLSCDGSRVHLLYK
Target sequence in this assay (O88871 41-940 partner): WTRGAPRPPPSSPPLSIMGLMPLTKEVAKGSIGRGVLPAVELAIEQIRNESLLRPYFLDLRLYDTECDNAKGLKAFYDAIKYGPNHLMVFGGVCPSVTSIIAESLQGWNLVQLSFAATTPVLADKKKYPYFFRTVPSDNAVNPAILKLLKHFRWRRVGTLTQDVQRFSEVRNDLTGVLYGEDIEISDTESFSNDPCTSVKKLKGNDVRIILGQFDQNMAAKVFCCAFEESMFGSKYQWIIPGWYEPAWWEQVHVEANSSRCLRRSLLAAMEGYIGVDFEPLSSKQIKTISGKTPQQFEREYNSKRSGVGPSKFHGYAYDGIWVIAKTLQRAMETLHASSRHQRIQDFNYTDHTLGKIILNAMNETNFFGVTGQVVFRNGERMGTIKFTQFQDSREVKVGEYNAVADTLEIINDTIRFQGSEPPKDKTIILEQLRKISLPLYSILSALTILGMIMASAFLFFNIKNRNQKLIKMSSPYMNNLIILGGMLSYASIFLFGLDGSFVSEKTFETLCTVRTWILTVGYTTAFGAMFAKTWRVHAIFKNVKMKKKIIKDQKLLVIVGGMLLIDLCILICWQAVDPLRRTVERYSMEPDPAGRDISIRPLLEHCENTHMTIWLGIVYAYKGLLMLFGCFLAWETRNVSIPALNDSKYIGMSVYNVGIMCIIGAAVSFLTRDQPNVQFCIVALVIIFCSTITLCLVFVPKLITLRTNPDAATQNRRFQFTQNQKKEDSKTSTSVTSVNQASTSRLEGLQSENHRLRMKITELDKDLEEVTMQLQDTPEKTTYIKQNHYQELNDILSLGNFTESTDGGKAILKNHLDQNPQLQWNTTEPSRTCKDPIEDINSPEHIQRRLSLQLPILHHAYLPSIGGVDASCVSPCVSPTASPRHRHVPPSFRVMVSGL
A further assay has as its target T2, GABAC (human r1) (Homo sapiens, UniProt P24046).
T2 construct: host or cells: Xenopus oocytes expressing human r1 mRNA
Particulars: cited from earlier work.

The subject of assay [3] is T3, GABAA.
T3 construct: Activity at GABAA; other: Woodward et al, 1993; GABAA Kb; other: Ragozzino et al (1996); other: PMPA; source not given, column fo
To be noted: Ragozzino et al (1996); cited from earlier work.

Another assay concerns male Swiss mice. The assay is described as follows: Elevated plus-maze memory test. It counts as in vivo. Here is the method:
In this assay mice are trained by placing them at the end of the open arm of the plus maze and allowing them to find the shelter of the closed arms. The time taken is measured as the ‘latency’. Immediately after the trial the mice are injected with the test drug or with a saline control. […]

A further assay addresses human rho-2 receptors (Homo sapiens, UniProt P28476). The assay is described as follows: Antagonist KB at human homo-oligomeric rho-2 GABAC receptors. The assay is classed as cell-based. To be noted: for Kb: human rho-2.
Assay [4] addresses T3, GABAA. The assay can be described thus: Inhibition of [3H]muscimol binding using rat cortical membranes. To be noted: PMPA; source not given, column footnote is [3H]muscimol binding; read-out: GABAA receptor affinity, IC50.
Assay [5] concerns the target T1, GABAB. The assay is described as follows: Frequency of spontaneous discharges in neocortical slices, grease-gap recording. The arrangement: from tissue; host or cells: rat cortical membranes / neocortical slices; values largely from the literature. Particulars: read-out: GABAB receptor affinity.
Target sequence in this assay (Q9Z0U4 17-960 limits assumed): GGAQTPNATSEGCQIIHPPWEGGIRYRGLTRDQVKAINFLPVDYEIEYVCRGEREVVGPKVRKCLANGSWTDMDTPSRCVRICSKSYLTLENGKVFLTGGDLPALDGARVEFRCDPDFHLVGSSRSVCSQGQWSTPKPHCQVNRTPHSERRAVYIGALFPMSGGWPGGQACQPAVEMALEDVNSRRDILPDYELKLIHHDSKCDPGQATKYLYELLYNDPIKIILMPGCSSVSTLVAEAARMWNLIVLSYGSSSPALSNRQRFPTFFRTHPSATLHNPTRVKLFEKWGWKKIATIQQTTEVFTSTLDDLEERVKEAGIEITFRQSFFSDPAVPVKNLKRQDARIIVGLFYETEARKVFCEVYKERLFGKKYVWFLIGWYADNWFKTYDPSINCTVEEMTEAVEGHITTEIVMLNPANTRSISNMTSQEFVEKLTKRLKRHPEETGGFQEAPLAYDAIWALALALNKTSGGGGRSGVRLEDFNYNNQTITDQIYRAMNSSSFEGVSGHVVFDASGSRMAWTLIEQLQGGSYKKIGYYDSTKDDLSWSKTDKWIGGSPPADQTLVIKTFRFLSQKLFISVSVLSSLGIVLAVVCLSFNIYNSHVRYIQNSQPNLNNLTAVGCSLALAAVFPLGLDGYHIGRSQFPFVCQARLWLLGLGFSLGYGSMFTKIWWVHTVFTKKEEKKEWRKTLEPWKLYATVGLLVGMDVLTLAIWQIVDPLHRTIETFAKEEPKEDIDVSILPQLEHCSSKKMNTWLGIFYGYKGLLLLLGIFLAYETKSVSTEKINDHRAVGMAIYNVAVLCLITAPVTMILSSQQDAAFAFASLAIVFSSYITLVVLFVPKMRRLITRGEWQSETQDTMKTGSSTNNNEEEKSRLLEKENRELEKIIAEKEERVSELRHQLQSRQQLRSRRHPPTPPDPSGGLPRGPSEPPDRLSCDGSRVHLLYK
Target sequence in this assay (O88871 41-940 partner): as the sequence (O88871 41-940 partner) above
Where [6] appears, read: Murata et al, 1996, Ragozzino et al.

The EC50 is the concentration giving half of the maximal effect. For orientation: Kd means a measure of binding affinity in units of concentration.

Chain of human r1 receptors (GABAC receptors) (P24046 22-479): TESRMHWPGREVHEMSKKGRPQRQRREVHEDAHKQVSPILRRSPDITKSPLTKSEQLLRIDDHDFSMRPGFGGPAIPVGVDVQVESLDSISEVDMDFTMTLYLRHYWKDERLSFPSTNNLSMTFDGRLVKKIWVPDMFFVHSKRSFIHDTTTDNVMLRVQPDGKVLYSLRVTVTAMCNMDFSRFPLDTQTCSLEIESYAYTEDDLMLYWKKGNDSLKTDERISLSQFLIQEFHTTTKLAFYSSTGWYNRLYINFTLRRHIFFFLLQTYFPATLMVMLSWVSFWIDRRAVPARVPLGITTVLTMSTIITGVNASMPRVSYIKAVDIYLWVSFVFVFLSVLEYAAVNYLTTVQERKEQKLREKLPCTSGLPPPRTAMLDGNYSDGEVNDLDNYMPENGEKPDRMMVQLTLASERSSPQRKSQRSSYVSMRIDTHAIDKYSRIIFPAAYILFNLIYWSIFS
T2 sequence (P24046 22-479): as above
Chain of human rho-2 receptors (P28476 21-465): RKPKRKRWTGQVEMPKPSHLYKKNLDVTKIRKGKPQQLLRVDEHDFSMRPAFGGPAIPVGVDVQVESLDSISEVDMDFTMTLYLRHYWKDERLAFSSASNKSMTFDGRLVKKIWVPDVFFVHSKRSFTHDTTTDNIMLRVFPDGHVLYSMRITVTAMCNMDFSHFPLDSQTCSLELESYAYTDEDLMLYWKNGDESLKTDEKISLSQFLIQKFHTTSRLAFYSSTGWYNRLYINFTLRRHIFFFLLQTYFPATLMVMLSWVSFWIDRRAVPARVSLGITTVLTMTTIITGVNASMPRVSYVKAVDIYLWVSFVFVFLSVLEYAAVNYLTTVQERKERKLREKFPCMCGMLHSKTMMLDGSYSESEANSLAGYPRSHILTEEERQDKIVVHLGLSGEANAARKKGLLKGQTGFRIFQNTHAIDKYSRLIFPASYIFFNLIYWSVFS

For `CP(=O)(O)C1=CCNCC1` [TPMPA], the Kb was 2 ± 0.4 µM in assay [1]; 2.1 µM at GABAC (human r1) (data from Murata et al, 1996); 320 µM in the assay on GABAA [3]; 15.6 ± 1.6 µM on human rho-2 receptors. Besides, in the assay with chicks (30 μM, intracranial injection, chicks trained with 20% anthranilate), the “Effect on memory (discrimination ratio)” value is “enhances memory”. The “Time of injection after training giving optimum effect” value in the assay on chicks (in vivo) was no more than 2.5 min. At GABAB [2], the EC50 was roughly 500 µM. Besides, the Kd at GABAC (human r1) (Murata et al, 1996, Ragozzino et al, 1996, read-out: KD, GABAC receptor antagonist activity) is 2.1 µM. The “Selectivity as antagonist for GABAC receptors over GABAB receptors” value on GABAC (human r1) (setting [6]) is “more than 100 fold”. The “Selectivity at GABAC receptors over GABAA receptors” value at GABAC (human r1) (setting [6]) is 500 fold. Also, at GABAC (human r1) (read-out: Concentration producing 50% inhibition of GABAC receptor activation), the IC50 was 2.1 µM. Further, the Effect on latency result in the assay with male Swiss mice (50 mg/Kg, repeat experiment, tested only after 14 days, Swiss mice from a different source) was “significantly reduced latency”; with male Swiss mice (200 mg/Kg, first experiment, 14 day test), “significantly reduces the latency”. The “Potency at blocking rho-2 receptors relative to rho-1 GABAC receptors” value at human rho-2 receptors (human homo-oligomeric receptors) was “an order of magnitude less potent”.

For the molecule `CP(=O)(O)C1CCNCC1` [PMPA, piperidine-4-(methyl)phosphinic acid], the Kb in assay [1] amounted to 6 ± 1.2 µM; at human rho-2 receptors, 4.2 ± 0.2 µM. In addition, the IC50 in assay [1] (IC50 (concentration that inhibits 50% of the response produced by 1 μM GABA), 1 μM GABA) is 6 µM; on GABAA [4], greater than 100 µM; on GABAB [5] it was greater than 1000 µM.
